Measured values from paper PMC12112332, “Characterization of Novel and Known Activators of Cannabinoid Receptor Subtype 2 Reveals Mixed Pharmacology That Differentiates Mycophenolate Mofetil and GW-842,166X from MDA7” (International Journal of Molecular Sciences, 2025).
Like-named read-outs stand apart in the source and are kept apart here.

Legend:
Format in all cases: cell-based
Human CB2 = Human CB2 (Homo sapiens, UniProt P34972); test: Activity at the human CB2 receptor (thallium flux)
[1] = biological target: T1, M4 muscarinic receptor expressed in HEK/GIRK cells (no CB receptor) (Homo sapiens, UniProt P08173); test: Thallium flux assay in parental HEK/GIRK cells (no CB receptor), acetylcholine as agonist; conditions: presence of EC20 acetylcholine, cells without CB receptor
T1 construct: host or cells: HEK/GIRK cells without CB receptor
T1 sequence (P08173 1-479): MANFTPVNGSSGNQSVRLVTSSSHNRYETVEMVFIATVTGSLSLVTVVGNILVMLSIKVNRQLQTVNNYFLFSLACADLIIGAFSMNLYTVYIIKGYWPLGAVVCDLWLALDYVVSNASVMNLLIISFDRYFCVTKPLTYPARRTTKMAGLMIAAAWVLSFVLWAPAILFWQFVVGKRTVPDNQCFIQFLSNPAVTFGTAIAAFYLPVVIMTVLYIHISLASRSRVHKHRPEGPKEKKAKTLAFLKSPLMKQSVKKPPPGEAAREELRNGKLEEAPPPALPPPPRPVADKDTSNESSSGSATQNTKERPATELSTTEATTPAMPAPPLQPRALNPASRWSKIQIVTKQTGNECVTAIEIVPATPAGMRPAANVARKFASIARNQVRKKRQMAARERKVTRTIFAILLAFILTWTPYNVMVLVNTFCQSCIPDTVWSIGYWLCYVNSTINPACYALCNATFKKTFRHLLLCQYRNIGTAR
Description: Mycophenolate mofetil is an immunosuppressant used to prevent organ transplant rejection and to treat autoimmune disorders such as lupus. To determine if mycophenolate mofetil exerts its activity in the thallium flux assay through rCB2, we tested it for activity in HEK cells expressing GIRK channels but not rCB2. Submaximal concentrations of acetylcholine were used as the agonist, targeting an M4 muscarinic receptor expressed in these HEK/GIRK cells. […] It was also critical to determine if mycophenolate mofetil was selective for the rCB2 versus rCB1 receptors, as activation of rCB1 receptors can have negative side effects, including anxiety, paranoia, and psychosis. […]
Thallium flux assays were performed as previously described in Niswender et al., 2008 [31]. […] Thallium flux was measured using the Hamamatsu FDSS/μCELL Kinetic Plate Imager (Bridgewater, NJ, USA). After the establishment of a fluorescence baseline (excitation, 480 ± 20 nm; emission, 540 ± 30 nm), 20 µL (2×) of test compound was added to the cells at 1 s and the response was measured. […] Raw kinetic data were analyzed in a multi-step process: (1) Fluorescence readings for each time point in a well were divided by the fluorescence reading at the initial time point to account for differences in cell number, non-uniform illumination, and dye-loading. […]

rat CB2 = biological target: T2, rat CB2 (Rattus norvegicus, UniProt Q9QZN9); test: PI hydrolysis (IP1) assay in HEK/Gqi9 cells expressing rat CB2; design: expressed in transfected cells; conditions: rCB2/Gqi9 cells
T2 sequence (Q9QZN9 1-360): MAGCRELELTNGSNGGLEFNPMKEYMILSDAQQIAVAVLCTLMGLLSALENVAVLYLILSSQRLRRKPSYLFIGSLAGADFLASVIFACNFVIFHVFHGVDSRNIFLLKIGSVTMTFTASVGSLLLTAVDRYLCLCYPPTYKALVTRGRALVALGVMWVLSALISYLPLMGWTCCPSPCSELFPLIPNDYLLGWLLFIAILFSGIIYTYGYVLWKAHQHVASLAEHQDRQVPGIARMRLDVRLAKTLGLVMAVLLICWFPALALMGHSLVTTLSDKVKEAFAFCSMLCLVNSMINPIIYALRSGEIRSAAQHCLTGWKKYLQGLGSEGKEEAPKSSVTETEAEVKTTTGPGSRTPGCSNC
Experimental: In a complementary assay, we used phosphoinositide (PI) hydrolysis in the presence of the chimeric G protein, Gqi9, to assess activity.
One day prior to experimentation, selected HEK/Gqi9 monoclonal cells stably expressing rat CB2 were plated onto poly-D-lysine coated clear-bottom 384-well plates (15,000 cells per well) in DMEM supplemented with 10% FBS and 20 mM HEPES. Ten minutes prior to the assay, the cell culture medium was replaced with 20 µL 37 °C Hank’s balanced salt solution (HBSS; with Ca^2+, Mg^2+, glucose). IP1 stimulation was then initiated by adding 5 µL of 5× agonist dissolved in HBSS plus 40 mM Li^+, and cells were incubated for an additional hour before aspiration and addition of Lysis Buffer. IP1 levels were determined using the Cisbio HTRF IP-ONE assay kit according to the manufacturer’s instructions, and fluorescence was measured using an Envision plate reader (PerkinElmer, Waltham, MA, USA). Data were acquired as HTRF ratio (665/620) and expressed as nanomolar levels of IP1.

Sequence of Human CB2 (P34972 whole entry): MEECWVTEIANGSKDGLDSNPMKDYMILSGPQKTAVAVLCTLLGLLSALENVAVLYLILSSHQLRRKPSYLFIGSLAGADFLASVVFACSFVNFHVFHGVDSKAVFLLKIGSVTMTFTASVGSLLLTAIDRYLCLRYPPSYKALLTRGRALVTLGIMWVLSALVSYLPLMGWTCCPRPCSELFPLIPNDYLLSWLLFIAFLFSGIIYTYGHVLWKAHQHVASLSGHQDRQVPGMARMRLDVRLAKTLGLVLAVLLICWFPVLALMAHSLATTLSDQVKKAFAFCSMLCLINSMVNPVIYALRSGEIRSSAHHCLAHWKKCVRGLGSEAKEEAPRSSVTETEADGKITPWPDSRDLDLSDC

| SMILES | human CB2 receptor % Max (Human CB2) [%] | EC50 (Human CB2; read-out: human CB2 receptor pEC50 (converted)) [nM] | HEK GIRK (+) ACh pEC50 ± SEM % Max ± SEM [1] | PI hydrolysis Max IP1, absence of 2-AG (rat CB2; absence of 2-AG, IP1 concentration) [nM] | EC50 (rat CB2; absence of 2-AG, read-out: PI hydrolysis potency, absence of 2-AG) [nM] | PI hydrolysis Max IP1, presence of 2-AG (rat CB2; presence of EC20 2-AG, IP1 concentration) [nM] | EC50 (rat CB2; presence of EC20 2-AG, read-out: PI hydrolysis potency, presence of 2-AG) [nM] |
| --- | --- | --- | --- | --- | --- | --- | --- |
| COc1c(C)c2c(c(O)c1C/C=C(\C)CCC(=O)OCCN1CCOCC1)C(=O)OC2 [Mycophenolate mofetil] | 36 ± 4 | 2000 | Inactive | 438 ± 32 | 521 | 633 ± 122 | 700 |
| COc1c(C)c2c(c(O)c1C/C=C(\C)CCC(=O)O)C(=O)OC2 [Mycophenolic acid] |  |  | Inactive |  |  |  |  |
